{
  "source": "patent US11344499B2",
  "about": "“Nanoparticles as delivery vehicles of active ingredients and methods for the production thereof” (CONSIGLIO NAZIONALE DELLE RICERCHE, priority 2017, dated 2022)",
  "key": {"HT29 cells [1]": {"test_system": "HT29 cells", "test": "Cell cycle analysis by flow cytometry (PI)", "format": "cell-based, human", "details": "HT29, 50 μM of 9-HSA, 24 h", "protocol": "Cell cycle analysis was performed as follows: 5.0×10^3 HT29 cells were seeded in 200 μl of growth medium in a 48-well culture plate. After 24 h of cell growth, the medium was removed and the cells were incubated with the experimental medium containing KER-NPs-9HSA (50 μM of 9-HSA) and free 9-HSA. Twenty-four hours after treatment, cells were trypsinized, washed twice with PBS and then centrifuged. Cells pellet was re-suspended in 0.01% Nonidet-P40 (Sigma-Aldrich), 10 μg/mL of RNasi (Sigma-Aldrich), 0.1% of sodium citrate (Sigma-Aldrich), 50 μg/mL di propidium iodide (PI) (Sigma-Aldrich), and kept in the dark for 30 min at room temperature. Florescence was detected by a flow cytometry (Beckman Coulter Epics XL-MCL), while cell cycle analysis was performed with Cell Cycle program (MODEFIT 5.0)."}, "HT29 cells [2]": {"test_system": "HT29 cells", "test": "Count of alive cells after treatment", "format": "cell-based, human", "details": "HT29, 50 μM of 9-HSA, 24 h", "protocol": "Briefly 5.0×10^3 human colon adenocarcinoma cell line HT29 cells were seeded in 200 μl of growth medium in replicate (n=4) in a 48-well culture plate. After 24 h of cell growth, the medium was removed and the cells were incubated with the experimental medium containing KNPs-9HSA (50 μM of 9-HSA) and free 9-HSA. Twenty-four hours after treatment, cells were detached and counted."}},
  "data": [
    {"smiles": "CCCCCCCCCC(O)CCCCCCCC(=O)O", "note": "(centres unmarked) [Entry 9-HSA, 9-hydroxystearic acid]", "values": [
      {"measurement": "cell cycle effect", "setting": "HT29 cells [1]", "result": "blocks the cell cycle in the G0/G1 phase"},
      {"measurement": "tumor cell proliferation (number of alive cells)", "setting": "HT29 cells [2]", "result": "inhibit tumor cell proliferation"}
    ]}
  ]
}
